Data from US7235366B1 (priority 1993, dated 2007).
Like-named read-outs stand apart in the source and are kept apart here. Residues, ends and D or L forms follow the SMILES beside them.

Experiments:
cloned mouse κ receptor = molecular target: T1, cloned mouse κ receptor (Mus musculus, UniProt P33534); assay: biochemical; assay type: binding
T1 construct: expressed in transfected cells

cloned rat μ receptor = molecular target: T2, cloned rat μ receptor (Rattus norvegicus, UniProt P33535); assay: biochemical; assay type: binding
T2 construct: expressed in transfected cells; host or cells: COS-7 (transient)

[1] = molecular target: T3, wild-type mouse delta opioid receptor (Mus musculus, UniProt P32300); assay: biochemical; assay type: binding
T3 construct: expressed in transfected cells; host or cells: COS-7 (transient, pCMV6c)

[2] = molecular target: T4, D128N mutant mouse delta opioid receptor (Mus musculus, UniProt P32300, D128N); assay: biochemical; assay type: binding
T4 construct: expressed in transfected cells; host or cells: COS-7 (transient, pCMV6c)

[3] = molecular target: T5, H278N mutant mouse delta opioid receptor (Mus musculus, UniProt P32300, H278N); assay: biochemical; assay type: binding
T5 construct: expressed in transfected cells; host or cells: COS-7 (transient, pCMV6c)

cloned mouse δ receptor = molecular target: T6, cloned mouse δ receptor (Mus musculus, UniProt P32300); assay: biochemical; assay type: binding
T6 construct: expressed in transfected cells

MOP2 [4] = molecular target: T7, MOP2 (Mus musculus, UniProt P35377); assay type: cell-based
T7 construct: expressed in transfected cells; host or cells: COS-7 (transient)

κ/δ2eloop chimera = assay type: binding
[5] = molecular target: T8, cloned human μ opioid receptor (Homo sapiens, UniProt P35372); assay type: binding
T8 construct: This fragment includes the entire coding region of the human μ opioid receptor; expressed in transfected cells; host or cells: COS-7 (transient, pcDNA3)

[6] = molecular target: T9, cloned rat μ opioid receptor (Rattus norvegicus, UniProt P33535); assay type: binding
T9 construct: expressed in transfected cells; host or cells: COS-7 (transient)

MOP2 [7] = molecular target: T7, MOP2; assay type: binding
[8] = molecular target: kappa 1-74/delta65-372 chimera (Mus musculus, UniProt P32300+P33534, A193I/A281G/D128E/D204G/D206V/DEL208-209/DEL216-217/DEL300-312/E203D/E218S/E297A/F225V/F314L/G197A/G198V/I133A/I135L/I177L/I191V/I194M/I237V/I243T/I250L/I284V/I285V/I294L/I85V/INS221Y/INS293[…]/K200Q/K254R/K274R/L173A/L184V/L196M/L224T/L275M/L295V/M112L/M226T/M90L/N122E/N268S/R263K/S123T/S188G/S192P/S211M/T110S/T247G/T288A/T321A/V108A/V118K/V129L/V201P/V205A/V232L/V239I/V282A/V83G/Y219P/Y313H)
[9] = molecular target: T10, mouse delta opioid receptor aspartate 95 to asparagine mutant (Mus musculus, UniProt P32300, D95N); assay: Binding to delta receptor mutant with aspartate 95 converted to asparagine, COS-7 cells
T10 construct: expressed in transfected cells; host or cells: COS-7

[10] = read-out: Binding potencies (Ki-nM) κ RECEPTOR [^3H] U-69, 593
[11] = read-out: Binding potencies (Ki-nM) μ RECEPTOR [^3H] DAMGO
[12] = read-out: Binding potencies (Ki-nM) δ RECEPTOR [^3H] naltrindole
[13] = Binding potencies (Ki-nM) μ RECEPTOR [^3H] DAMGO

T1 sequence (P33534 whole entry): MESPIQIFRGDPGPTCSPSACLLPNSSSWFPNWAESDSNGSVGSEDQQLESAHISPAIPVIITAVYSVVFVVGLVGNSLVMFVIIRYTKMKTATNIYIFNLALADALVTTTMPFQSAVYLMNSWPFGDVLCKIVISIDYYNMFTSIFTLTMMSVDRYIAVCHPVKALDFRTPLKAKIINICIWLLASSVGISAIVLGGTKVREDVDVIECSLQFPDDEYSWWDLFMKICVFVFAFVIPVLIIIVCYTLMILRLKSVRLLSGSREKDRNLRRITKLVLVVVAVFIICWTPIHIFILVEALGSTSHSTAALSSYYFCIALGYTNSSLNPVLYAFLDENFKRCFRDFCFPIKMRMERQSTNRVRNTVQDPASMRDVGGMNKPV
T2 sequence (P33535 whole entry): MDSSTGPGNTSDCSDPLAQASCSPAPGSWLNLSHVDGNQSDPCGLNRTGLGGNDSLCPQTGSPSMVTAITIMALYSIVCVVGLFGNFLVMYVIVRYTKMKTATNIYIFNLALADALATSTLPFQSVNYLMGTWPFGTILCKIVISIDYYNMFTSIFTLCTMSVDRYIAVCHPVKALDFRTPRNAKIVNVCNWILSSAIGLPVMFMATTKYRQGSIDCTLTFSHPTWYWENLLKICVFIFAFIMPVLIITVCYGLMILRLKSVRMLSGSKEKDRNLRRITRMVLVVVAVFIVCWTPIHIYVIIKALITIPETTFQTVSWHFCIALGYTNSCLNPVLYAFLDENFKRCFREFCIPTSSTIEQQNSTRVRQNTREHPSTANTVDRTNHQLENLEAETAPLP
T7 sequence (P35377 whole entry): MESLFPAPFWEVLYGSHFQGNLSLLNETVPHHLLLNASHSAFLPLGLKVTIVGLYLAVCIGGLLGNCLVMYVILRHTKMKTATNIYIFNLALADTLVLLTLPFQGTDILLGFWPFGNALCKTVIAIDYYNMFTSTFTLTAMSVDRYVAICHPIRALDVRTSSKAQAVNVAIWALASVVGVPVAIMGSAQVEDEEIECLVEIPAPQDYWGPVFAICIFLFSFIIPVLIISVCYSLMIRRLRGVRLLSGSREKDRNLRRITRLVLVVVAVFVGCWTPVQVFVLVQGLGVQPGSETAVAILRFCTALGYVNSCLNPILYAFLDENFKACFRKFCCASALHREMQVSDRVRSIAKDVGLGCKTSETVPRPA
T5 sequence (P32300 whole entry H278N): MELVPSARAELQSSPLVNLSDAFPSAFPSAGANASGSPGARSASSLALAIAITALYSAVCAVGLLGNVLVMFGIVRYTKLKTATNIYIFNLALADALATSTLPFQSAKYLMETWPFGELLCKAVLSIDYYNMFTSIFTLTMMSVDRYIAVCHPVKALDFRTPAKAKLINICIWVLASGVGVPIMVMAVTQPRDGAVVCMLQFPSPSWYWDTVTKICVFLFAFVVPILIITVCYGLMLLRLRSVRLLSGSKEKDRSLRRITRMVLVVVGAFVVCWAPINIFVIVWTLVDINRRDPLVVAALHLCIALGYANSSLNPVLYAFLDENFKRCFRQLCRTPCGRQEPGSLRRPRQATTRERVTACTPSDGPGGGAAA
T6 sequence (P32300 whole entry): as the sequence (P32300 whole entry H278N) above, with N278H counted along it
T3 sequence (P32300 whole entry): as the sequence (P32300 whole entry H278N) above, with N278H counted along it
T4 sequence (P32300 whole entry D128N): as the sequence (P32300 whole entry H278N) above, with D128N, N278H counted along it
T8 sequence (P35372 whole entry, the tested form may be a part): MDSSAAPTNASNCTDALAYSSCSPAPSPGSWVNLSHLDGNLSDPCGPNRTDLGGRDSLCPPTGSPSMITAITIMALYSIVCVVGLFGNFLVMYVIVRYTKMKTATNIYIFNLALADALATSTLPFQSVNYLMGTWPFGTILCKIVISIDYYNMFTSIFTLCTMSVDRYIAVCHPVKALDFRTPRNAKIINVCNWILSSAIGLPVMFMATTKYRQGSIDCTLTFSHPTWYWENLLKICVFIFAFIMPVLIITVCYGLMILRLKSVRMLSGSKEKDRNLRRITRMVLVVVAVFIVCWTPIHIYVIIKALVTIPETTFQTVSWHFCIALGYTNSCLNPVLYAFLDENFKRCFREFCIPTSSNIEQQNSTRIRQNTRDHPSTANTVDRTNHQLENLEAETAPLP
T10 sequence (P32300 whole entry D95N): as the sequence (P32300 whole entry H278N) above, with D95N, N278H counted along it
T9 sequence (P33535 whole entry): as the sequence (P33535 whole entry) above
Sequence of kappa 1-74/delta65-372 chimera (P33534+P32300 fused with the stated changes): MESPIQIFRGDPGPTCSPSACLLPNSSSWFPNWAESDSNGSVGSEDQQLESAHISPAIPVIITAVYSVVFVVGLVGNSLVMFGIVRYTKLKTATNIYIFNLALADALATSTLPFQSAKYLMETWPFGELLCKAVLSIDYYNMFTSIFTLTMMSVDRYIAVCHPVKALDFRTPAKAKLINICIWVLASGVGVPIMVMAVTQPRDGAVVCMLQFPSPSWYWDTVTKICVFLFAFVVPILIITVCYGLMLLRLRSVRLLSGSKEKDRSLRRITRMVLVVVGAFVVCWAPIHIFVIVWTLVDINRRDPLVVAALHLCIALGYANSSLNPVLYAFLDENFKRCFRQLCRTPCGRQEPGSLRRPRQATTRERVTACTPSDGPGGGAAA

Compound: CN1CC[C@]23c4c5ccc(O)c4O[C@H]2C(=O)C2(Cc4ccccc4C2)C[C@@]3(O)[C@H]1C5 [SIOM, 7-spiroindino-oxymorphone]
- Ki (cloned mouse κ receptor; [10]): > 1000 nM
- Ki (cloned rat μ receptor; [11]): 33 nM
- Ki ([1]; read-out: Potencies of Agonists to Bind, Wild-type (Ki values in nM)): 46 nM
- Ki ([2]; read-out: Potencies of Agonists to Bind, D128N mutant (Ki values in nM)): 1220 nM
- Ki ([3]; read-out: Potencies of Agonists to Bind, H278N mutant (Ki values in nM)): 1.8 nM

Compound: COc1ccc2c3c1O[C@H]1[C@@H](O)C=C[C@H]4[C@@H](C2)N(C)CC[C@@]341 [codeine]
- Ki (cloned mouse κ receptor): > 1000 nM
- Ki (cloned mouse δ receptor): > 1000 nM
- Effect on forskolin-stimulated cAMP formation, MOP2 (MOP2 [4]): no effect

Compound: CC[C@H](C)[C@H](NC(=O)[C@H](CCCNC(=N)N)NC(=O)[C@H](CCCNC(=N)N)NC(=O)[C@H](CC(C)C)NC(=O)[C@H](Cc1ccccc1)NC(=O)CNC(=O)CNC(=O)[C@@H](N)Cc1ccc(O)cc1)C(=O)N[C@@H](CCCNC(=N)N)C(=O)N1CCC[C@H]1C(=O)N[C@@H](CCCCN)C(=O)N[C@@H](CC(C)C)C(=O)N[C@@H](CCCCN)C(=O)N[C@@H](Cc1c[nH]c2ccccc12)C(=O)N[C@@H](CC(=O)O)C(=O)N[C@@H](CC(N)=O)C(=O)N[C@@H](CCC(N)=O)C(=O)O [Dynorphin]
- Binding to the κ/δ2eloop chimera (κ/δ2eloop chimera): did not bind

Compound: CN1CC[C@@]23CCCC[C@@H]2[C@@H]1Cc1ccc(O)cc13 [Dextrorphan]
- Ki (cloned mouse κ receptor): > 1000 nM
- Ki (cloned mouse δ receptor): > 1000 nM

Compound: CN1CC[C@]23CCCC[C@H]2[C@H]1Cc1ccc(O)cc13 [Levorphanol]
- Ki (cloned mouse κ receptor): 6.5 nM
- Ki (cloned mouse δ receptor): 5 nM
- Ki [1]: 187 nM
- Ki [2]: 4380 nM
- Ki [3]: 2.8 nM
- Effect on forskolin-stimulated cAMP formation, MOP2 (MOP2 [4]): no effect

Compound: COC(=O)/C=C/C(=O)N[C@@H]1CC[C@@]2(O)[C@H]3Cc4ccc(O)c5c4[C@@]2(CCN3CC2CC2)[C@H]1O5 [β-FNA, β-funaltrexamine]
- Ki (cloned mouse κ receptor; [10]): 2.8 nM
- Ki (cloned mouse δ receptor; [12]): 48 nM
- Ki (cloned rat μ receptor; [11]): 0.33 nM
- Ki ([5]; read-out: Binding potencies (Ki-nM) for the cloned human μ opioid receptor [^3H] DAMGO): 0.29 nM

Compound: C=CCN1CC[C@]23c4c5ccc(O)c4O[C@H]2[C@@H](O)C=C[C@H]3[C@H]1C5 [nalorphine]
- Ki (cloned mouse κ receptor): 1.1 nM
- Ki (cloned rat μ receptor): 0.97 nM

Compound: pertussis toxin [PTX]
- Decrease of specific [3H]DAMGO labelling of the rat μ receptor [6]: 42+/−5%

Compound: C[C@@H](NC(=O)[C@@H](N)Cc1ccc(O)cc1)C(=O)NCC(=O)N(C)[C@@H](Cc1ccccc1)C(=O)NCCO [[^3H]DAMGO]
- Specific binding of radioligand to MOP2 (MOP2 [7]): did not bind specifically

Compound: CC(C)=CCN1CCC2(C)c3cc(O)ccc3CC1C2C (centres unmarked) [pentazocine]
- Ki (cloned mouse δ receptor): 31 nM
- Ki (cloned rat μ receptor): 5.7 nM

Compound: CN1CC[C@]23c4c5ccc(O)c4O[C@H]2[C@@H](O)C=C[C@H]3[C@H]1C5 [morphine]
- Effect on forskolin-stimulated cAMP formation, MOP2 (MOP2 [4]): no effect

Compound: CC(C)C[C@H](NC(=O)[C@H](Cc1ccccc1)NC(=O)CNC(=O)[C@@H](CO)NC(=O)[C@@H](N)Cc1ccc(O)cc1)C(=O)N[C@H](C(=O)O)[C@@H](C)O [DSLET, [D-Ser^2, Leu^5]enkephalin-Thr^6]
- Ki (cloned rat μ receptor; [13]): 39 nM

Compound: β-Endorphin (human)
- Effect on forskolin-stimulated cAMP formation, MOP2 (MOP2 [4]): no effect

Compound: C[C@@H](O)[C@H](NC(=O)[C@H]1NC(=O)[C@H]([C@@H](C)O)NC(=O)[C@H](CCCN)NC(=O)[C@@H](Cc2c[nH]c3ccccc23)NC(=O)[C@H](Cc2ccc(O)cc2)NC(=O)[C@@H](NC(=O)[C@H](N)Cc2ccccc2)CSSC1(C)C)C(N)=O [CTOP, D-Phe-Cys-Tyr-D-Trp-Orn-Thr-Pen-Thr-NH2]
- Ki (cloned mouse κ receptor): > 1000 nM
- Ki (cloned mouse δ receptor): > 1000 nM

Compound: Oc1ccc2c3c1O[C@H]1c4[nH]c5ccccc5c4C[C@@]4(O)[C@@H](C2)N(CC2CC2)CC[C@]314 [[^3H]naltrindole]
- Kd (cloned mouse δ receptor): 0.18 nM
- Kd [1]: 0.6 ± 0.2 nM
- Kd [2]: 1.3 ± 0.6 nM
- Kd [3]: 0.2 ± 0.1 nM
- Specific binding of radioligand to MOP2 (MOP2 [7]): did not bind specifically
- Binding of radioligand to the kappa 1-74/delta65-372 chimera [8]: potently bound

Compound: CCC(=O)C(CC(C)N(C)C)(c1ccccc1)c1ccccc1 (centres unmarked) [methadone]
- Effect on forskolin-stimulated cAMP formation, MOP2 (MOP2 [4]): no effect

Compound: CC[C@H](C)[C@H](NC(=O)[C@H](C)NC(=O)[C@H](CC(N)=O)NC(=O)[C@H](CCCCN)NC(=O)[C@H](Cc1ccccc1)NC(=O)[C@H](CC(C)C)NC(=O)[C@@H](NC(=O)[C@@H](NC(=O)[C@H](CC(C)C)NC(=O)[C@@H]1CCCN1C(=O)[C@@H](NC(=O)[C@H](CCC(N)=O)NC(=O)[C@H](CO)NC(=O)[C@H](CCCCN)NC(=O)[C@H](CCC(=O)O)NC(=O)[C@H](CO)NC(=O)[C@@H](NC(=O)[C@H](CCSC)NC(=O)[C@H](Cc1ccccc1)NC(=O)CNC(=O)CN)[C@@H](C)O)[C@@H](C)O)C(C)C)[C@@H](C)O)C(=O)N[C@H](C(=O)N[C@@H](CCCCN)C(=O)N[C@@H](CC(N)=O)C(=O)N[C@@H](C)C(=O)N[C@@H](Cc1ccc(O)cc1)C(=O)N[C@@H](CCCCN)C(=O)N[C@@H](CCCCN)C(=O)NCC(=O)N[C@@H](CCC(=O)O)C(=O)O)[C@@H](C)CC [des-Tyr^1-β-endorphin] (H-GGFMTSEKSQTPLVTLFKNAIIKNAYKKGE-OH; N-terminus and C-terminus assumed)
- Ki (cloned mouse κ receptor; [10]): > 1000 nM
- Ki (cloned mouse δ receptor; [12]): > 1000 nM
- Ki (cloned rat μ receptor; [11]): > 1000 nM

Compound: Oc1ccc2c3c1O[C@H]1c4[nH]c5c(c4C[C@@]4(O)[C@@H](C2)N(CC2CC2)CC[C@]314)C[C@@]1(O)[C@H]2Cc3ccc(O)c4c3[C@@]1(CCN2CC1CC1)[C@H]5O4 [nor-BNI, nor-binaltorphimine]
- Ki (cloned mouse κ receptor): 0.027 nM

Compound: Oc1ccc2c3c1O[C@H]1c4oc5ccccc5c4C[C@@]4(O)[C@@H](C2)N(CC2CC2)CC[C@]314 [NTB]
- Ki (cloned mouse κ receptor; [10]): 13 nM
- Ki (cloned mouse δ receptor; [12]): 0.013 nM
- Ki (cloned rat μ receptor; [11]): 12 nM
- Ki ([1]; read-out: Potencies of Antagonist binding, Wild-type (Ki values in nM)): 0.04 nM
- Ki ([2]; read-out: Potencies of Antagonist binding, D128N mutant (Ki values in nM)): 0.07 nM
- Ki ([3]; read-out: Potencies of Antagonist binding, H278N mutant (Ki values in nM)): 0.03 nM
- Affinity of aspartate 95 mutant and wild-type delta receptors compared [9]: similar

Compound: CC(C)=CCN1CCC2(C)c3cc(O)ccc3CC1C2C (centres unmarked) [^3H-pentazocine]
- Specific binding of radioligand to MOP2 (MOP2 [7]): did not bind specifically

Compound: Dynorphin A (1–8)
- Binding to the κ/δ2eloop chimera (κ/δ2eloop chimera): did not bind

Compound: CN(C(=O)Cc1ccc(Cl)c(Cl)c1)C(CN1CCCC1)c1cccc(OCC(=O)O)c1 (centres unmarked) [ICI 204, 448]
- Ki (cloned mouse κ receptor; [10]): 0.71 nM
- Ki (cloned mouse δ receptor; [12]): > 1000 nM
- Ki (cloned rat μ receptor; [11]): > 1000 nM

Compound: D-Ala^2-deltorphin II
- Binding to the cloned human receptor (inhibition of [3H]DAMGO binding), words [5]: did not bind

Compound: CC[C@]12CCN(CC3CC3)[C@H](C(=O)c3ccc(O)cc31)[C@@H]2C [Ethylketocyclazocine]
- Ki (cloned mouse δ receptor): 101 nM
- Ki (cloned rat μ receptor): 3.1 nM
- Effect on forskolin-stimulated cAMP formation, MOP2 (MOP2 [4]): no effect

Compound: Dynorphin A (1–17)
- Binding to the κ/δ2eloop chimera (κ/δ2eloop chimera): did not bind

Compound: O=C1/C(=C/c2ccccc2)C[C@@]2(O)[C@H]3Cc4ccc(O)c5c4[C@@]2(CCN3CC2CC2)[C@H]1O5 [BNTX, 7-Benyllidenenaltrexone]
- Ki (cloned mouse κ receptor; [10]): 55 nM
- Ki (cloned mouse δ receptor; [12]): 0.66 nM
- Ki (cloned rat μ receptor; [11]): 18 nM
- Affinity of aspartate 95 mutant and wild-type delta receptors compared [9]: similar

Compound: NC(=O)[C@@H]1CCCN1C(=O)[C@H](Cc1ccccc1)NC(=O)[C@@H]1CCCN1C(=O)[C@@H](N)Cc1ccc(O)cc1 [morphiceptin] (H-YPFP-NH2)
- Ki (cloned mouse κ receptor): > 1000 nM
- Ki (cloned mouse δ receptor): > 1000 nM
- Ki (cloned rat μ receptor; Affinities for the cloned μ receptor): 10 to 100 nM
- Ki (cloned rat μ receptor; [13]): 56 nM
